Laboratory results: the NIST ThermoML archive (doi:10.1016/j.jct.2012.11.032)
“And” between values parts separate entries of the source, which are not always exact repeats. Equal values may be shown once. Numbers after ± are expanded uncertainties.

Columns and labels:
[1] = xn = mol fraction of the nth substance listed; settings: 101 kPa, Liquid, x2 = 0; for mass density: Vibrating tube method; for speed of sound: Sing-around technique in a fixed-path interferometer
[2] = 101 kPa, Liquid, Vibrating tube method

SMILES: O [water] + CCCCCCCCCCCC[n+]1ccn(C)c1.[Cl-]
- mass density ([1]; 283 K): 999.719 ± 0.1 kg/m3
- mass density ([1]; 308 K): 994.091 ± 0.1 kg/m3
- speed of sound ([1]; 313 K): 1529 ± 1.2 m/s
- mass density ([1]; 313 K): 992.27 ± 0.1 kg/m3

SMILES: O [water] + CCCCCCCCCCn1cc[n+](C)c1.[Cl-]
- mass density ([1]; 283 K): 999.713 ± 0.1 kg/m3
- mass density ([1]; 308 K): 994.099 ± 0.1 kg/m3
- speed of sound ([1]; 313 K): 1529 ± 1.2 m/s

SMILES: O [water] + CCCCCCCC[n+]1ccn(C)c1.[Cl-]
- mass density ([1]; 283 K): 999.754 ± 0.1 kg/m3
- mass density ([1]; 288 K): 999.166 ± 0.1 kg/m3
- mass density ([1]; 293 K): 998.283 ± 0.1 kg/m3
- mass density ([1]; 303 K): 995.75 ± 0.1 kg/m3
- mass density ([1]; 308 K): 994.144 ± 0.1 kg/m3
- speed of sound ([1]; 313 K): 1529 ± 1.2 m/s
- mass density ([1]; 313 K): 992.33 ± 0.1 kg/m3

SMILES: O [water]
- mass density ([2]; 283 K): 999.754 ± 0.1 kg/m3 and 999.719 ± 0.1 kg/m3 and 999.713 ± 0.1 kg/m3
- mass density ([2]; 288 K): 999.166 ± 0.1 kg/m3
- mass density ([2]; 293 K): 998.283 ± 0.1 kg/m3
- mass density ([2]; 303 K): 995.75 ± 0.1 kg/m3
- mass density ([2]; 308 K): 994.099 ± 0.1 kg/m3 and 994.091 ± 0.1 kg/m3 and 994.144 ± 0.1 kg/m3
- mass density ([2]; 313 K): 992.27 ± 0.11 kg/m3 and 992.33 ± 0.1 kg/m3
